# Measurements: ChEMBL document CHEMBL2203133 (J Med Chem, 2012)
# Active and inactive are the calls of the source. The calls are words filed in the database; no cut-off is given here.
# Tests used:
# [1] = Plasma concentration in BALB/c mouse at 10 mg/kg, po at 6 hrs; type: ADME, organism-based; design: dose 10 mg/kg, route oral
# [2] = Plasma concentration in BALB/c mouse at 10 mg/kg, po at 1 hr; type: ADME, organism-based; design: dose 10 mg/kg, route oral
# [3] = Plasma concentration in BALB/c mouse at 10 mg/kg, iv at 1 hr administered as bolus dose; type: ADME, organism-based; design: dose 10 mg/kg, route intravenous
# [4] = molecular target: T1, Serine/threonine-protein kinase Chk1 (Homo sapiens, UniProt O14757)
# T1 sequence (O14757 whole entry): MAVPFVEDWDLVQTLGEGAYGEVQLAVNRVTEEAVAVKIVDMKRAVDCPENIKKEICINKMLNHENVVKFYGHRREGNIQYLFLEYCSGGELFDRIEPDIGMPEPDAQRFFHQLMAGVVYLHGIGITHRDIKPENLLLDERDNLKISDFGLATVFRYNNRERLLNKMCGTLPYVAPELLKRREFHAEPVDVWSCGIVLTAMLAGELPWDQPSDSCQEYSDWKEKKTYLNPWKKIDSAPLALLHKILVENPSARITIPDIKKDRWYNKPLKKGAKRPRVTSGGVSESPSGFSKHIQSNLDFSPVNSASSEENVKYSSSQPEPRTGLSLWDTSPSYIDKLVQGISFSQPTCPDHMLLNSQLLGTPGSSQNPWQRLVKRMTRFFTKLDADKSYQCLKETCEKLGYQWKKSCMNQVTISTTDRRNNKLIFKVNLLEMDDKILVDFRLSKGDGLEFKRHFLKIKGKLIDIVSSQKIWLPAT
# [5] = Plasma concentration in BALB/c mouse at 10 mg/kg, iv at 6 hrs administered as bolus dose; type: ADME, organism-based; design: dose 10 mg/kg, route intravenous
# in vitro = conditions: mouse, liver microsomes
# hERG (KCNH2) [6] = molecular target: T2, hERG (KCNH2) (Homo sapiens, UniProt Q12809); assay: Inhibition of human ERG overexpressed in HEK cells at 10 uM; type: cell-based, HEK293; conditions: HEK cells overexpressing human ERG
# [7] = molecular target: Voltage-gated inwardly rectifying potassium channel KCNH2 (Homo sapiens, UniProt Q12809)
# Mus musculus [8] = assay: Inhibition of CHK1 autophosphorylation in human SW620 cells xenografted in athymic nude mouse at 300 mg/kg, po measured at 6 hrs by Western blot analysis in presence of gemcitabine; type: functional, organism-based; design: dose 300 mg/kg; conditions: SW-620
# Nav1.5 = Nav1.5 (Homo sapiens, UniProt Q14524); assay: Inhibition of human Nav1.5 at 10 uM
# Mus musculus [9] = assay: Toxicity in athymic mouse xenografted with human Calu6 cells assessed as body weight loss at 75 mg/kg, po tid for 7 days; type: organism-based, Calu-6; design: dose 75 mg/kg, route oral; conditions: in vivo, 168 h
# [10] = Thermodynamic solubility of the compound in water; type: physicochemical
# Mus musculus [11] = assay: Toxicity in athymic mouse xenografted with human SW620 cells assessed as body weight loss at 75 mg/kg, po tid for 4 days; type: organism-based, SW-620; design: dose 75 mg/kg, route oral; conditions: in vivo, 96 h
# [12] = molecular target: Serine/threonine-protein kinase Chk2 (Homo sapiens, UniProt O96017)
# Kir2.1 = Kir2.1 (Homo sapiens, UniProt P63252); assay: Inhibition of human Kir2.1 at 10 uM
# [13] = Toxicity in po dosed mouse; type: organism-based; conditions: in vivo
# Cav1.2 = Cav1.2 (Homo sapiens, UniProt Q13936); assay: Inhibition of human Cav1.2 at 10 uM
# Plasma = assay: Plasma protein binding in human; type: ADME, cell-free
# Mus musculus [14] = assay: Toxicity in athymic mouse xenografted with human HT-29 cells assessed as body weight loss at 75 mg/kg, po tid for 7 days; type: organism-based; design: dose 75 mg/kg, route oral; conditions: in vivo, 168 h
# Mus musculus [15] = assay: Inhibition of CHK1 in human SW620 cells xenografted in athymic nude mouse at 300 mg/kg, po measured at 12 hrs by Western blot analysis in presence of gemcitabine; type: functional, organism-based; design: dose 300 mg/kg; conditions: SW-620
# [16] = molecular target: Cyclin-dependent kinase 1 (Homo sapiens, UniProt P06493)
# [17] = molecular target: Potassium/sodium hyperpolarization-activated cyclic nucleotide-gated channel 4 (Homo sapiens) (UniProt Q9Y3Q4); assay: Inhibition of human HCN4 at 10 uM
# [18] = molecular target: Ribosomal protein S6 kinase alpha-1 (Homo sapiens) (UniProt Q15418); assay: Inhibition of human RSK1 at 1 uM by radiometric assay in presence of ATP
# [19] = molecular target: Potassium voltage-gated channel subfamily A member 5 (Homo sapiens) (UniProt P22460); assay: Inhibition of human Kv1.5 at 10 uM
# Mus musculus [20] = assay: Oral bioavailability in BALB/c mouse at 10 mg/kg; type: ADME, organism-based; conditions: in vivo
# Caco-2 = conditions: human
# Description: Permeability across apical to basolateral side in human Caco2 cells
# [21] = molecular target: AMP-activated protein kinase, AMPK (Homo sapiens) (UniProt P54646+O43741+P54619+Q9UGJ0+Q9Y478+Q13131+Q9UGI9); assay: Inhibition of human AMPK at 1 uM by radiometric assay in presence of ATP; type: protein-complex assay
# [22] = molecular target: Ribosomal protein S6 kinase alpha-3 (Homo sapiens) (UniProt P51812); assay: Inhibition of human RSK2 at 1 uM by radiometric assay in presence of ATP
# [23] = Drug uptake in human SW620 cells xenografted in athymic nude mouse at 300 mg/kg, po measured at 6 to 12 hrs in presence of gemcitabine; type: ADME, organism-based, SW-620; design: dose 300 mg/kg, route oral; conditions: in vivo
# KCNQ1/MINK (IKs) = KCNQ1/MINK (IKs) (Homo sapiens, UniProt P15382+P51787); assay: Inhibition of human KCNQ1/MINK at 10 uM; type: protein-complex assay
# Kv4.3/KchIP2 = Kv4.3/KchIP2 (Homo sapiens, UniProt Q9NS61+Q9UK17); assay: Inhibition of human Kv4.3/KchIP2 at 10 uM; type: protein-complex assay
# Mus musculus [24] = assay: Clearance in BALB/c mouse at 10 mg/kg, iv and po; type: ADME, organism-based; design: dose 10 mg/kg, route oral; conditions: in vivo
# [25] = molecular target: Serine/threonine-protein kinase BRSK1 (Homo sapiens) (UniProt Q8TDC3); assay: Inhibition of human BRSK1 at 1 uM by radiometric assay in presence of ATP
# [26] = Aqueous solubility in phosphate buffer at pH 6.5; type: physicochemical
# Mus musculus [27] = assay: Volume of distribution at steady state in BALB/c mouse at 10 mg/kg, iv and po; type: ADME, organism-based; design: dose 10 mg/kg, route oral; conditions: in vivo
# [28] = molecular target: High affinity nerve growth factor receptor (Homo sapiens) (UniProt P04629); assay: Inhibition of human TRKA at 1 uM by radiometric assay in presence of ATP
# [29] = molecular target: Interleukin-1 receptor-associated kinase 1 (Homo sapiens) (UniProt P51617); assay: Inhibition of human IRAK1 at 1 uM by radiometric assay in presence of ATP
# hERG (KCNH2) [30] = molecular target: T2, hERG (KCNH2); assay: Inhibition of human ERG overexpressed in HEK cells at 11 uM; type: cell-based, HEK293; conditions: HEK cells overexpressing human ERG
# Voltage-gated inwardly rectifying potassium channel KCNH2, sequence (Q12809 whole entry): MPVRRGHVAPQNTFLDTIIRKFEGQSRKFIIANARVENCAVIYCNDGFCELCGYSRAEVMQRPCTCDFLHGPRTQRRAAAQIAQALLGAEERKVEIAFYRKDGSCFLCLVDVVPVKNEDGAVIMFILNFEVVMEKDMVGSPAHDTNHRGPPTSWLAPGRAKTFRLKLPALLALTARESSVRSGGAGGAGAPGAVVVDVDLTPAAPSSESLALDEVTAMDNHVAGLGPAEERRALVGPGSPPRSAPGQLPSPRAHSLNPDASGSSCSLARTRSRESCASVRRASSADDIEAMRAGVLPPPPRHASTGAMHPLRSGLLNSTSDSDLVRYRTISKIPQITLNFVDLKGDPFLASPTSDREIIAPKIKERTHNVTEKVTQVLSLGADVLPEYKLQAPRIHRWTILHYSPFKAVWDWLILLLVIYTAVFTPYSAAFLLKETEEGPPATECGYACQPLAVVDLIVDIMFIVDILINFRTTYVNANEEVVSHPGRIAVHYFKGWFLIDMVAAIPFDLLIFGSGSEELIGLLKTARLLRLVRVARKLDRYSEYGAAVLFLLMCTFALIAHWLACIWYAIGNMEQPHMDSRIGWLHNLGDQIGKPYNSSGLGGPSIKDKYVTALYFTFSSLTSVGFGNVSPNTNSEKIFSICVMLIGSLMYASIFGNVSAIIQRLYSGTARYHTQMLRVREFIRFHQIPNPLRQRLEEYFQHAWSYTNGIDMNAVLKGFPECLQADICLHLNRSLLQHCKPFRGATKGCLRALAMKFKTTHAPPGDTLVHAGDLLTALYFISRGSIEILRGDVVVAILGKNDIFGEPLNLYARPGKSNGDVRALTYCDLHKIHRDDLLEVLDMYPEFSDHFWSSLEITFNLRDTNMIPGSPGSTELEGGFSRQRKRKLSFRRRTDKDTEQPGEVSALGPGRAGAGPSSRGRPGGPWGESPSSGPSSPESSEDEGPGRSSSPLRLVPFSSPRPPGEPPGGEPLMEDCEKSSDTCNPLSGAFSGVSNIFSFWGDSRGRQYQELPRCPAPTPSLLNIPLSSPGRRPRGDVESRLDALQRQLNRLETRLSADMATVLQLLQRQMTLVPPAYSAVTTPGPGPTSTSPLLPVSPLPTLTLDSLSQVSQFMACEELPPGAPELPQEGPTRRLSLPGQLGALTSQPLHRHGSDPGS
# T2 sequence (Q12809 whole entry): as above
# Potassium/sodium hyperpolarization-activated cyclic nucleotide-gated channel 4 (Homo sapiens), sequence (Q9Y3Q4 whole entry): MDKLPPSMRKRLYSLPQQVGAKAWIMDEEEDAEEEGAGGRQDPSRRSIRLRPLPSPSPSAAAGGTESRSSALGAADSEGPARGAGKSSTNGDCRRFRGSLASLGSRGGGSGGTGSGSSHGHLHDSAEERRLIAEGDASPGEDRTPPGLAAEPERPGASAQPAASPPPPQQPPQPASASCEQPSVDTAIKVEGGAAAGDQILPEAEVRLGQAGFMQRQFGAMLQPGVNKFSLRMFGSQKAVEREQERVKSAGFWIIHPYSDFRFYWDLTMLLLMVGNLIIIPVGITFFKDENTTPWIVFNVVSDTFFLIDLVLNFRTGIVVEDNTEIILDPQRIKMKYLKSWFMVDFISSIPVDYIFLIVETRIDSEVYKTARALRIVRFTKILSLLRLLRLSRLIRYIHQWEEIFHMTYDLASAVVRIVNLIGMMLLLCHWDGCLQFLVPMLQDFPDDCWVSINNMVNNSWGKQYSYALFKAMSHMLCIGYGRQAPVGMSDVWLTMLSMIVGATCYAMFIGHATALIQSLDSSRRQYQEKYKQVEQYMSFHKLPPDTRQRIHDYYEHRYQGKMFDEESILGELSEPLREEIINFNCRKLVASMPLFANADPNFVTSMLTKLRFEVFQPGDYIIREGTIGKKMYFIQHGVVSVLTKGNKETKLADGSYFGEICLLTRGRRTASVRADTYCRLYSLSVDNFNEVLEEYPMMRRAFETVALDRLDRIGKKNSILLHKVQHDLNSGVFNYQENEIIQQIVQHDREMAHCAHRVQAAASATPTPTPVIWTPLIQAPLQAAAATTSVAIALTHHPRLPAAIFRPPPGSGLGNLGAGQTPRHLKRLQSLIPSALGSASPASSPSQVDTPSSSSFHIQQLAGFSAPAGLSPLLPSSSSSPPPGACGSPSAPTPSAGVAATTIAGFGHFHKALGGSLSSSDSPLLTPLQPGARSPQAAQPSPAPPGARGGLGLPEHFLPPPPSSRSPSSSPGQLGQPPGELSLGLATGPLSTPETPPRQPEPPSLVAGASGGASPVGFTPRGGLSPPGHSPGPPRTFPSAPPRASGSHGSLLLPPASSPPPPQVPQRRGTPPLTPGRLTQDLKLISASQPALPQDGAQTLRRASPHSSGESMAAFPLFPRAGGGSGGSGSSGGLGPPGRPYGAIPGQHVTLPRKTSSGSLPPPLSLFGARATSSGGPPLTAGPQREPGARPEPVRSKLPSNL
# KCNQ1/MINK (IKs), sequence (P51787 whole entry): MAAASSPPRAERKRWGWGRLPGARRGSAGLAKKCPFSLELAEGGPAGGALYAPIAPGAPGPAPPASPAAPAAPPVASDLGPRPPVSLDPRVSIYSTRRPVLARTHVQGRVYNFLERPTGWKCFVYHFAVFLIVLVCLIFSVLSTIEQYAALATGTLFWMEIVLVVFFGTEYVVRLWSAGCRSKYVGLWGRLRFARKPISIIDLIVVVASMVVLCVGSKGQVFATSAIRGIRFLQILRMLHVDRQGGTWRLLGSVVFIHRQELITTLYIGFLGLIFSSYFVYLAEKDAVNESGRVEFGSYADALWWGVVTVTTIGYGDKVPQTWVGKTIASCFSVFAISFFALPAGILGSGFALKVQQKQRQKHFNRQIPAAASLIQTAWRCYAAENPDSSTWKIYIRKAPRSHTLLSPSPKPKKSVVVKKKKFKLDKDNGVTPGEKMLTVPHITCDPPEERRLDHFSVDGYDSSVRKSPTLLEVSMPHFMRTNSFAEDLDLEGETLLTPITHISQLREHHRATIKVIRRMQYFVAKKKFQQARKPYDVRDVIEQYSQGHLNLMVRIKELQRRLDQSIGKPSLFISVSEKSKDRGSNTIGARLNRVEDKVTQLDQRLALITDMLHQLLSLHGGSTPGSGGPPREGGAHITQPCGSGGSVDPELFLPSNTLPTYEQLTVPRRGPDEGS
# Potassium voltage-gated channel subfamily A member 5 (Homo sapiens), sequence (P22460 whole entry): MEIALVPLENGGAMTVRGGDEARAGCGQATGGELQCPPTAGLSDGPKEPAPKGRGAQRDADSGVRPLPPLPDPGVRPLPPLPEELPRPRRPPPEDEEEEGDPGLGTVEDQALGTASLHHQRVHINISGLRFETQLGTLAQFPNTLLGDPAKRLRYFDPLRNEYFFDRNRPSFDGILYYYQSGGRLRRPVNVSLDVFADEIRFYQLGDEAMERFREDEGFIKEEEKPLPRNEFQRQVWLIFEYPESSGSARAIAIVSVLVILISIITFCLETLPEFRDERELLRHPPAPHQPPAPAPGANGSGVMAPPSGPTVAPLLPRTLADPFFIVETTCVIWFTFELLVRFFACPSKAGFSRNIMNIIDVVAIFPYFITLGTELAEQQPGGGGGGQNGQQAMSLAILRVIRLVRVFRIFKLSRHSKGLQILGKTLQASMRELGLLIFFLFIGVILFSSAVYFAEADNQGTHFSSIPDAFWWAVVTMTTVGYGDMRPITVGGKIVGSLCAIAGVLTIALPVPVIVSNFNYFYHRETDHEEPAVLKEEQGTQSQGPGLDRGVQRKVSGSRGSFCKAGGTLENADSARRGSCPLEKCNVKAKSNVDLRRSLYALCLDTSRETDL
smiles,measurement,setting,value
C#Cc1cnc(Nc2cnc(C#N)c(O[C@H](C)CN(C)C)n2)cc1NC,concentration at 6 h,[1],6 nM
same,concentration at 1 h,[2],439 nM
same,concentration at 1 h,[3],833 nM
same,IC50,[4],11 nM
same,concentration at 6 h,[5],7 nM
same,metabolised at 0.5 h,in vitro,40%
CNc1cc(Nc2cnc(C#N)c(O[C@@H]3CCNC3)n2)ncc1-c1cnn(C)c1,inhibition at 10 µM,hERG (KCNH2) [6],22%
CSc1cc(Nc2cnc(C#N)c(O[C@H](C)CN(C)C)n2)ncc1-c1cnn(C)c1,IC50,[7],8 µM
same,IC50,[4],27 nM
COc1cc(Nc2cnc(C#N)c(O[C@H](C)CN(C)C)n2)ncc1-c1cnn(C)c1,inhibition,Mus musculus [8],Active
same,inhibition at 10 µM,Nav1.5,< 25%
same,Activity,Mus musculus [9],Non-toxic
same,Therm_solubility,[10],0.07 mg/mL
same,Activity,Mus musculus [11],Non-toxic
same,IC50,[12],> 10 µM
same,inhibition at 10 µM,Kir2.1,< 25%
same,MTD,[13],> 300 mg/kg
same,inhibition at 10 µM,Cav1.2,< 25%
same,PPB,Plasma,82%
same,concentration at 6 h,[1],52 nM
same,concentration at 1 h,[2],1120 nM
same,Activity,Mus musculus [14],Non-toxic
same,inhibition,Mus musculus [15],Active
same,IC50,[7],5 µM
same,IC50,[16],> 10 µM
same,inhibition,[17],< 25%
same,inhibition,[18],> 80%
same,inhibition,[19],< 25%
same,F,Mus musculus [20],61%
same,permeability,Caco-2,29 ×10⁻⁶ cm/s
same,concentration at 1 h,[3],1850 nM
same,inhibition,[21],> 80%
same,IC50,[4],7.7 nM
same,inhibition,[22],> 80%
same,concentration at 6 h,[5],27 nM
same,Drug uptake,[23],Active
same,inhibition at 10 µM,KCNQ1/MINK (IKs),< 25%
same,inhibition at 10 µM,Kv4.3/KchIP2,< 25%
same,clearance,Mus musculus [24],0.125 L/h
same,inhibition,[25],> 80%
same,solubility thermodynamic,[26],6200 µg/mL
same,Vdss,Mus musculus [27],0.113 L
same,inhibition,[28],> 80%
same,metabolised at 0.5 h,in vitro,38%
same,inhibition,[29],> 80%
CNc1cc(Nc2cnc(C#N)c(O[C@H]3CCNC3)n2)ncc1-c1cnn(C)c1,concentration at 6 h,[1],2 nM
same,concentration at 1 h,[2],3 nM
same,concentration at 1 h,[3],254 nM
same,concentration at 6 h,[5],53 nM
same,metabolised at 0.5 h,in vitro,12%
same,inhibition at 10 µM,hERG (KCNH2) [6],37%
CNc1cc(Nc2cnc(C#N)c(O[C@H](C)CN(C)C)n2)ncc1-c1cccc(F)c1,inhibition at 11 µM,hERG (KCNH2) [30],103%
same,IC50,[4],36 nM
CNc1cc(Nc2cnc(C#N)c(O[C@H](C)CN(C)C)n2)ncc1C#CC(C)(C)O,IC50,[4],2.9 nM
same,inhibition at 10 µM,hERG (KCNH2) [6],59%
COC(=O)c1cnc(Nc2cnc(C#N)c(O[C@@H]3CCNC3)n2)cc1OC,inhibition at 11 µM,hERG (KCNH2) [30],44%
same,IC50,[4],46.5 nM
COc1cc(Nc2cnc(C#N)c(O[C@@H]3CCN(C)C3)n2)ncc1-c1cnn(C)c1,concentration at 6 h,[1],6 nM
same,concentration at 1 h,[2],264 nM
same,IC50,[7],16 µM
same,concentration at 1 h,[3],1180 nM
same,IC50,[4],6.3 nM
same,concentration at 6 h,[5],7 nM
same,metabolised at 0.5 h,in vitro,18%
CNc1ccnc(Nc2cnc(C#N)c(O[C@H](C)CN(C)C)n2)c1,IC50,[4],97 nM
same,inhibition at 10 µM,hERG (KCNH2) [6],71%
C[C@H](CN(C)C)Oc1nc(Nc2cc3cccc(Cl)c3cn2)cnc1C#N,IC50,[7],5 µM
